The values below are quoted from earlier work in patent US20170049884A1, “USE OF ANTI-CCR5 ANTIBODIES IN GRAFT VERSUS HOST DISEASE” (CytoDyn Inc., priority 2014, published 2017).

For data set [1] the following is noted: in vivo; cited from earlier work.
The conditions of data set [2]: single administration of TAK-652 solution; cited from earlier work.

As for `Cc1ccc(-c2ccc3c(c2)C=C(C(=O)Nc2ccc(C[N+](C)(C)C4CCOCC4)cc2)CCC3)cc1.[Cl-]` [TAK-779], in data set [1], the local tolerability result was “local injection site irritation”.

As for `CCCCOCCOc1ccc(-c2ccc3c(c2)/C=C(/C(=O)Nc2ccc([S+]([O-])Cc4cncn4CCC)cc2)CCCN3CC(C)C)cc1` (centres unmarked) [TAK-652], the safety and tolerability entry in data set [2] was “safe and well tolerated”.
